# In PMC10349806 (Nature Communications, 2023):
# “And” between values parts separate entries of the source, which are not always exact repeats. Equal entries are not always repeated.
# Assays:
# PfCRT variant Y276A = target: T1, PfCRT variant Y276A (Plasmodium falciparum, UniProt Q9N623, A220S/I356T/K76T/M74I/N326S/N75E/Q271E/R371I/Y276A); assay: CQ uptake assay, oocytes expressing Y276A; type: cell-based
# T1 sequence (Q9N623 1-424 M74I/N75E/K76T/A220S/Q271E/Y276A/N326S/I356T/R371I): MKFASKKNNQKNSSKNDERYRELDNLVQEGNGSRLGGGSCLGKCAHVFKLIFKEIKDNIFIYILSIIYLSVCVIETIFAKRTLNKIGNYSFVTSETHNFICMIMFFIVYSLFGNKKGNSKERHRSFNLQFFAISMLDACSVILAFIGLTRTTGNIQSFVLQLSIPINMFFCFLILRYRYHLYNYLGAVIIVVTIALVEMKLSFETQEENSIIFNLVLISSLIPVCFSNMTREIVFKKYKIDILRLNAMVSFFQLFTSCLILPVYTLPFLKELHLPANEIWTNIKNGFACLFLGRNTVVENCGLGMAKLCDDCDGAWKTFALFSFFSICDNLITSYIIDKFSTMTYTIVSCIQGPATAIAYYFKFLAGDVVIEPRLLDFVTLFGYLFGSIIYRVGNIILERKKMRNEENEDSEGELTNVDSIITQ
# Method: (§1) Site-directed mutagenesis of PfCRT^Dd2 was performed as described using the megaprimer method with overlap extension[21],[54]. The primer pairs used are listed in Supplementary Table 6. Please note that a codon-optimized and oocyte-adapted version of PfCRT^Dd2 was used[22] (Supplementary Fig. 16). The resulting DNA fragment was cloned into the SP64T expression vector and verified by sequencing.
# (§2) Oocytes were obtained as described previously. Briefly, adult (>2 years old) female X. laevis frogs (NASCO) were anesthetized in a cooled solution of ethyl 3-amino benzoate methanesulfonate (0.1%, w/v), followed by a surgical removal of parts of the ovary. The ovary lobes were carefully dissected and small pieces of oocytes were incubated in Ca^2+-free ND96 buffer (96 mM NaCl, 2 mM KCl, 1 mM MgCl2 buffered with 5 mM HEPES/NaOH, pH 7.5) supplemented with collagenase D (0.1%, w/v; Roche), BSA (0.5%, w/v), and 9 mm Na2HPO4 at 18 °C for 14-16 h while gentle shaking. After incubation, the oocytes were carefully washed several times with ND96 buffer (96 mM NaCl, 2 mM KCl, 1.8 mM CaCl2, 1 mM MgCl2 buffered with 5 mM HEPES/NaOH, pH 7.5) supplemented with 100 mg l^−1 gentamycin). Defolliculated and healthy-looking stage V-VI oocytes were manually selected for RNA microinjection. The RNA was generated as following: The codon-optimized sequences of PfCRT variants were cloned into the pSP64T expression vector. After vector linearization using the restriction endonucleases BamHI or SalI (New England Biolabs), transcription was performed using the in vitro SP6 mMessage mMachine Kit (Ambion)[34]. The obtained RNA was kept at −80 °C and diluted with nuclease-free water to a concentration of 0.6 μg μl^−1. Precision-bore glass capillary tubes (3.5-inch glass capillaries; Drummond Scientific Co.) were pulled on a vertical puller (P-87 Flaming/Brown micropipette puller, Sutter Instrument Co.), graduated, and placed on a microinjector (Nanoject II Auto-Nanoliter Injector, Drummond Scientific Co.). 50 nl of nuclease-free water alone (control oocytes) or 50 nl of 0.6 μg μl^−1 RNA were injected under stereomicroscopic control. Injected oocytes were incubated for 46–72 h at 18 °C with twice-daily buffer changes before usage in experiments.
# Drug uptake assays were performed as described previously[21],[22],[24],[34]. […] The direction of radio-labeled drug transport is here from the mostly acidic extracellular solution (pH 4.5 or 6.0, as indicated) into the oocyte cytosol (pH ∼ 7.2), which corresponds to the efflux of drug from the acidic digestive vacuole (pH 5.2) into the parasite cytoplasm (pH 7.2). The topology of PfCRT in the oolemma is such that both the N- and C-terminus face the extracellular milieu[3],[22]. In the parasite, the N- and C-terminus face the lumen of the digestive vacuole. […] For determination of the amount of drug uptake for each oocyte, the reaction medium was removed and the oocytes were washed three times with 2 ml of ice-cold ND96 buffer. Each oocyte was individually transferred to a scintillation vial containing 5% sodium dodecyl sulfate (200 μl) for lysis. […] Oocytes that were injected with water instead of RNA were analyzed in parallel, representing the uptake of a drug by diffusion and/or endogenous permeation pathways. The resulting value represents the “background“ level of drug accumulation in oocytes (in-depth discussion in[22]). The specific PfCRT-mediated uptake was determined by subtracting the corresponding background value measured in water-injected oocytes from that of PfCRT-expressing oocytes. In all cases, at least three separate experiments were performed on oocytes from different frogs (biological replicate), and for each condition in an experiment, measurements were made from 10 oocytes per treatment. For pH 5.5, 6.0, and 6.5, ND96 was buffered with 5 mM MES/Tris base.
# PfCRT variant E207P = assay: CQ uptake assay, oocytes expressing E207P; type: cell-based, Plasmodium falciparum
# Method: as §1, §2
# Drug uptake assays were performed as described previously[21],[22],[24],[34]. […] The direction of radio-labeled drug transport is here from the mostly acidic extracellular solution (pH 4.5 or 6.0, as indicated) into the oocyte cytosol (pH ∼ 7.2), which corresponds to the efflux of drug from the acidic digestive vacuole (pH 5.2) into the parasite cytoplasm (pH 7.2). The topology of PfCRT in the oolemma is such that both the N- and C-terminus face the extracellular milieu[3],[22]. In the parasite, the N- and C-terminus face the lumen of the digestive vacuole. CQ uptake kinetics were performed by incubating oocytes in ND96 buffer adjusted to a pH of 4.5, 5.0, 5.5, or 6.0 and supplemented with 50 nM [^3H]CQ and one of 7 different CQ concentrations (10 µM, 50 µM, 100 µM, 200 µM, 300 µM, 400 µM, 500 µM CQ). The reaction was stopped at the 60 min time point, which is in the linear uptake range[22],[34] (Supplementary Fig. 17). For determination of the amount of drug uptake for each oocyte, the reaction medium was removed and the oocytes were washed three times with 2 ml of ice-cold ND96 buffer. Each oocyte was individually transferred to a scintillation vial containing 5% sodium dodecyl sulfate (200 μl) for lysis. The radioactivity of each sample was measured using a liquid scintillation analyzer Tri-Carb 4910 TR (PerkinElmer). Oocytes that were injected with water instead of RNA were analyzed in parallel, representing the uptake of a drug by diffusion and/or endogenous permeation pathways. The resulting value represents the “background“ level of drug accumulation in oocytes (in-depth discussion in[22]). […]
# [1] = Y276A, 50 µM CQ, 1 h, mean ± SEM
# [2] = E207P, 50 µM CQ, 1 h, mean ± SEM
smiles,measurement,setting,value
"CCN(CC)CCCC(C)Nc1ccnc2cc(Cl)ccc12 (stereo not drawn) [CQ, chloroquine]",Activity at pH 4.5,PfCRT variant Y276A; [1],1.50 ± 0.12 pmol h-1 oocyte-1
same,Activity at pH 6.0,PfCRT variant Y276A; [1],3.51 ± 0.35 pmol h-1 oocyte-1
same,R-value,"PfCRT variant Y276A; Y276A, CQ transport at pH 4.5 / pH 6.0",0.45 ± 0.09
same,Y276A transport activity pH 4.5,"PfCRT variant Y276A; pH 4.5, single replicates, Fig 1d left",1.28 pmol oocyte-1 h-1 and 1.46 pmol oocyte-1 h-1
same,Y276A R-value,"PfCRT variant Y276A; pH 4.5 vs pH 6.0, Fig 1d left",0.34 and 0.66 and 0.36
same,Y276A transport activity pH 6.0,"PfCRT variant Y276A; pH 6.0, single replicates, Fig 1d left",3.78 pmol oocyte-1 h-1 and 2.68 pmol oocyte-1 h-1 and 4.08 pmol oocyte-1 h-1
same,Activity at pH 4.5,PfCRT variant E207P; [2],2.31 ± 0.3 pmol h-1 oocyte-1
same,Activity at pH 6.0,PfCRT variant E207P; [2],2.45 ± 0.21 pmol h-1 oocyte-1
same,R-value,"PfCRT variant E207P; E207P, CQ transport at pH 4.5 / pH 6.0",0.93 ± 0.05
same,E207P transport activity pH 4.5,"PfCRT variant E207P; pH 4.5, individual replicates, Fig 6b",2.94 pmol oocyte-1 h-1 and 1.66 pmol oocyte-1 h-1 and 2.34 pmol oocyte-1 h-1
same,E207P transport activity pH 6.0,"PfCRT variant E207P; pH 6.0, individual replicates, Fig 6b",2.94 pmol oocyte-1 h-1 and 2.08 pmol oocyte-1 h-1 and 2.34 pmol oocyte-1 h-1
same,E207PR-value,PfCRT variant E207P; ratio of activity pH 4.5 / pH 6.0,1.00 and 0.80
